Test results from patent US10233198B2, “Pro-drugs of NSAIAs with very high skin and membranes penetration rates and their new medicinal uses” (Techfields Pharma Co., Ltd., priority 2007, dated 2019).

What was measured:
normal rats = assay: Blood glucose in normal rats, transdermal; format: in vivo; details: no fasting; for Blood glucose, normal rats, Baseline: baseline of the treatment group
[1] = system: SLAC/GK rats, type 2 diabetes; assay: Blood glucose in type 2 diabetic rats, transdermal; format: in vivo; details: no fasting; for Blood glucose, diabetic rats, Baseline: baseline of the treatment group
Source text: (§1) The pro-drugs in this invention lower blood glucose levels in rat models (SLAC/GK, type 2 diabetes, n=7). 50% acetone solution of diethylaminoethyl acetylsalicylate.acetylsaficylic acid salt (P-1, in acetone); 4-acetamidophenyl salicylyldimethylaminobutyrate.HCl (P-6), diethylaminoethyl 5-(2,4-difluorophenyl) acetylsalicylate.5-(2,4-difluorophenyl) acetylsalicylic acid salt (P-8), diethylaminoethyl salicylsalicylate.AcOH (P-9), diethylaminoethyl salicylate.AcOH (P-10), diethylaminoethyl 5-acetamido-acetylsalicylate (P-58), diethylaminoethyl acetylsalicylsalicylate. acetylsalicylsalicylic acid salt (P-59), diethylaminoethyl acetylsalicylsalicylate. acetylsalicylsalicylsalicylic acid salt (P-60) (equal to of 20 mg/kg of NSAIAs) were administered transdermally to the backs (about 1.5 cm^2) of rats (fur was shaved) once per day (at 8 am) for 5 weeks. The blood glucose levels were measured once every 3 days at 4 pm (no fasting) from the second week to the fifth week. The blood lipid levels were measured at the end of the fifth week.

Chinese White rabbits [2] = assay: Autologous blood clot pulmonary embolism model, thrombus propagation; format: in vivo; details: 15 mg/kg topically on the back; after 2 days
Protocol: Eighteen Chinese White rabbits weighing between 3.0 and 3.5 kg (aged 6-7 months) were selected and divided into three groups (control, P-1 and […] groups, n=6). One hour before the experiment, thrombi were made by aspirating venous blood (1 ml) into a sterilized bottle to clot. To avoid fragmentation and slow lysis, the autologous blood clots were stabilized in temperature-controlled (70° C.) distilled water for 10 min. After anesthesia, the femoral veins were exposed and distally isolated, and autologous blood clots (0.05 g/kg) were injected through an indwelling catheter (20GA), which had been placed in the femoral vein isolated earlier. 50% acetone solution of diethylaminoethyl acetylsalicylate.acetylsalicylic acid salt (P-1, in acetone, 15 mg/kg) and diethylaminoethyl acetylsalicylsalicylate.acetylsalicylsalicylic acid salt (P-59, 15 mg/kg) were topically applied to the back of the rabbits. After 2 days, rabbits were euthanized with an excessive intravenous injection of sodium amobarbital (60 mg/kg). The lungs and hearts were isolated to observe whether thrombi were present in the pulmonary arteries. The lungs were immersed in 10% formalin for 24 h. Consecutive transverse sections along the obstructed pulmonary arteries were paraffin-embedded and stained with hematoxylin-eosine. […]

[3] = system: SLAC:NOD-IDDM mice, type 1 diabetes; assay: Blood glucose in type 1 diabetic mice, transdermal; format: in vivo; details: no fasting; for Blood glucose, type I diabetic mice, Baseline: baseline of the treatment group; for Blood glucose, type I diabetic mice, Average: transdermal, equal to 20 mg/kg of NSAIAs once per day for 7 weeks, fourth to seventh week
Source text: The pro-drugs in this invention lower blood glucose levels in mouse models (SLAC:NOD-IDDM, type 1 diabetes, n=7). 20% acetone solution of diethylaminoethyl acetylsalicylate.acetylsalicylic acid salt (P-1, in acetone); 4-acetamidophenyl salicylyldimethylaminobutyrate.HCl (P-6), diethylaminoethyl 5-(2,4-difluorophenyl) acetylsalicylate.5-(2,4-difluorophenyl) acetylsalicylic acid salt (P-8), diethylaminoethyl salicylsalicylate.AcOH (P-9), diethylaminoethyl salicylate.AcOH (P-10), diethylaminoethyl 5-acetamido-acetylsalicylate (P-58), diethylaminoethyl acetylsalicylsalicylate. acetylsalicylsalicylic acid salt (P-59), diethylaminoethyl acetylsalicylsalicylate. acetylsalicylsalicylsalicylic acid salt (P-60) (equal to of 20 mg/kg of NSAIAs) were administered transdermally to the backs (about 1 cm^2) of mice (fur was shaved) once per day (at 8 am) for 7 weeks. The blood glucose levels were measured once every 3 days at 3 pm (no fasting) from the fourth week to the seventh week.

[4] = system: SLAC/GK rats, type 2 diabetes; assay: Blood lipid levels in type 2 diabetic rats, transdermal; format: in vivo
Source text: as §1

[5] = In vivo penetration through skin of intact rats; distribution in plasma and tissues; details: 4 hours after 20% P-2 in 1 ml ethanol on about 5 cm^2 of rat back
Protocol: The in vivo rates of penetration of pro-drugs and their parent drugs through the skin of intact rats were compared. The donor consisted of 20% pro-drugs or their parent drugs in 1 ml of ethanol applied to about 5 cm^2 area on the backs of rats (˜200 g). After 4 hours, the rats were killed, and 5 ml of methanol was added to 1 ml of blood, 1 g of liver, 1 g of kidney, or 1 g of brain (liver, kidney or brain was washed with pH 7.2 buffer for three times) and the mixtures were homogenized. The samples were then centrifuged for 5 min and analyzed using HPLC.
After 4 hours, the rats were killed, and 5 ml of methanol was added to 1 ml of blood, 1 g of liver, 1 g of kidney, or 1 g of brain (liver, kidney or brain was washed with pH 7.2 buffer for three times) and the mixtures were homogenized.

[6] = system: human breast cancer cells (BCAP-37); assay: Anti-tumor activity, human breast cancer xenograft in nude mice, topical; details: day 42; 30 μl of 5% (1.5 mg) topically every 8 hours; BCAP-37 xenograft; in g (unit assumed)
Protocol: For evaluation of anti-tumor activity of the pro-drugs of NSAIAs, human breast cancer cells (BCAP-37, 2-3 mm^3 of tumor tissue was used in each mouse) were subcutaneously xenografted into nude mice (BALE, 12 groups, 7 mice each group). After 14 days, the tumors were growing to the size of 50±10 mm^3 (0.05 ml). Then 30 μl of 5% (equal to 1.5 mg of the pro-drugs) diethylaminoethyl acetylsalicylate.acetylsalicylic acid salt (P-1, in acetone); 1-piperidinepropyl 2[(2,6-dichlorophenyl)amino]benzene acetate.AcOH (P-2, in water), 1-pyrrolidinepropyl 2-(3-benzoylphenyl) propionate.AcOH (P-3, in water), 4-piperidinemethyl 2-(3-phenoxyphenyl)propionate.AcOH (P-4, in water), 3-piperidinemethyl 2-(ρ-isobutylphenyl) propionate.AcOH (P-5, in water), diethylaminoethyl 1-(p-chlorobenzoyl)-5-methoxy-2-methylindole 3-acetate.AcOH (P-11, in water), 2-(4-morpholinyl)ethyl (Z)-5-fluoro-2-methyl-1-[(4-methylsulfinyl) phenylmethylene]-1H-indene-3-acetate.AcOH (P-12, in water), diethylaminoethyl 2-(2,4-dichlorophenoxy)benzeneacetate.AcOH (P-19, in water), diethylaminoethyl 2-(8-methyl-10, 11-dihydro-11-oxodibenz(b,f)oxepin-2-yl)propionate.AcOH (P-37, in water), 1-pyrrolidinepropyl 2-[[(3-(trifluoromethyl)phenyl)amino]benzoate.AcOH (P-48, in water), 4-N,N-dimethylaminobutyryloxy-2-methyl-N-2-pyridinyl-2H,1,2-benzothiazine-3-carb oxamide 1,1-dioxide.HCl (P-51, in acetone) was topically applied to the human breast cancer cells-implanted area (near the front leg) every 8 hours.

[7] = system: human colon cancer cells (LS174J); assay: Anti-tumor activity, human colon cancer xenograft in nude mice, topical; details: day 30, about 30 μl of 5% (1.5 mg) topically every 8 hours
Protocol: In the second anti-tumor experiment, human colon cancer cells (LS174J, 2-3 mm^3 of tumor tissue was used in each mouse) were subcutaneously xenografted into nude mice (BALB). After 7 days, the tumors were growing to the size of 55±10 mm^3 (0.055 ml). Then about 30 μl of 5% (equal to 1.5 mg of the pro-drugs) diethylaminoethyl acetylsalicylate.acetylsalicylic acid salt (P-1, in acetone); 1-piperidinepropyl 2[(2,6-dichlorophenyl)amino]benzene acetate.AcOH (P-2, in water), 1-pyrrolidinepropyl 2-(3-benzoylphenyl) propionate.AcOH (P-3, in water), 4-piperidinemethyl 2-(3-phenoxyphenyl)propionate.AcOH (P-4, in water), 3-piperidinemethyl 2-(ρ-isobutylphenyl) propionate.AcOH (P-5, in water), diethylaminoethyl 1-methyl-5-(4-methylbenzoyl)-1H-pyrrole-2-acetate.AcOH (P-13, in water), 2-(4-morpholinyl)ethyl 2-amino-3-benzoylbenzeneacetateAcOH (P-16, in water), diethylaminoethyl 2-(10,11-dihydro-10-oxodibenzo(b,f)thiepin-2-yl)propionate.AcOH (P-36), diethylaminoethyl 2-[(2,3-dimethylphenypamino]benzoate.AcOH (P-46, in water), diethylaminoethyl 2-[(2,6-dichloro-3-methylphenyl)amino]benzoate.AcOH (P47, in water), N-(2-thiazoyl)-4-N,N-dimethylaminobutyryloxy-2-methyl-2H,1,2-benzothiazine-3-car boxamide 1,1-dioxide.HCl (P-52, in acetone) was topically applied to the human colon cancer cells-implanted area (near the front leg) every 8 hours.

Chinese White rabbits [8] = assay: Malassezia-induced psoriasis-like lesions; format: in vivo; details: 5% aqueous solution applied twice per day; 10 days after the application
Source text: COX-1 and COX-2 play a very important role in animal immune-responses. NSAIAs inhibite COX-1 and COX-2. The pro-drugs of NSAIAs in this invention may be very useful for treating psoriasis, discoid lupus erythematosus, systemic lupus erythematosus (SLE), and other autoimmune diseases. Heavy suspensions of Malassezia [Rosenberg, E. W., et al., Mycopathologia, 72, 147-154 (1980)] were applied to the shaved skin on the backs of the Chinese white rabbits (n=4×6) twice (at 7 am and 7 pm) per day for 2 weeks, lesions similar to psoriasis resulted.

[9] = prodrug versus testosterone (TS); cited from earlier work

## CC(=O)Oc1ccccc1C(=O)O.CCN(CC)CCOC(=O)c1ccccc1OC(C)=O [P-1, diethylaminoethyl acetylsalicylate.acetylsalicylic acid salt]
Normal rats
  Blood glucose, normal rats, Baseline: 6.4 ± 1 mmol/L
Normal rats; transdermal, equal to 20 mg/kg of NSAIAs once per day for 5 weeks, second to fifth week
  Blood glucose, normal rats, Average: 6.3 ± 1 mmol/L
[1]
  Blood glucose, diabetic rats, Baseline: 16.1 ± 3 mmol/L
Chinese White rabbits [2]
  Histology of lung tissue and vascular walls after clot injection: both lung tissue and vascular walls were normal
[3]
  Blood glucose, type I diabetic mice, Baseline: 26.1 ± 5 mmol/L
  Blood glucose, type I diabetic mice, Average: 6.5 ± 1 mmol/L
[4]; baseline of the treatment group
  Triglycerides, Baseline: 5.9 ± 0.5 mmol/L

## CC(=O)O.O=C(Cc1ccccc1Nc1c(Cl)cccc1Cl)OCCCN1CCCCC1 [P-2, 1-piperidinepropyl 2[(2,6-dichlorophenyl)amino]benzene acetate.AcOH]
[5]
  Brain level of prodrug or metabolite: 25 ± 6 µg/g
  Kidney level of prodrug or metabolite: 20 ± 6 µg/g
  Liver level of prodrug or metabolite: 22 ± 8 µg/g
  Plasma level of prodrug or metabolite: 40 ± 10 µg/mL
[6]
  Weight of nude mice: 22 ± 2
[7]
  Weight of nude mice: 22 ± 2

## CC(=O)O.CCN(CC)CCOC(=O)Cc1ccc(C(=O)c2ccc(C)cc2)n1C [P-13, diethylaminoethyl 1-methyl-5-(4-methylbenzoyl)-1H-pyrrole-2-acetate.AcOH]
[7]
  Weight of nude mice: 21 ± 2
Chinese White rabbits [8]
  Psoriasis-like lesions: the lesions were resolved

## CC(=O)Oc1ccccc1C(=O)Oc1ccccc1C(=O)O.CCN(CC)CCOC(=O)c1ccccc1OC(=O)c1ccccc1OC(C)=O [P-59, diethylaminoethyl acetylsalicylsalicylate. acetylsalicylsalicylic acid salt]
Normal rats
  Blood glucose, normal rats, Baseline: 7.2 ± 1 mmol/L
[1]
  Blood glucose, diabetic rats, Baseline: 16.3 ± 3 mmol/L
[1]; transdermal, equal to 20 mg/kg of NSAIAs once per day for 5 weeks, measured every 3 days, second to fifth week
  Blood glucose, diabetic rats, Average: 8.7 ± 1 mmol/L
Chinese White rabbits [2]
  Histology of lung tissue and vascular walls after clot injection: both lung tissue and vascular walls were normal
[3]
  Blood glucose, type I diabetic mice, Baseline: 24.3 ± 3 mmol/L
  Blood glucose, type I diabetic mice, Average: 8.7 ± 1 mmol/L
[4]; end of fifth week, transdermal, equal to 20 mg/kg of NSAIAs once per day
  Triglycerides, Average: 2.9 ± 0.2 mmol/L

## CN(C)CCCC(=O)O[C@H]1CC[C@H]2[C@@H]3CCC4=CC(=O)CC[C@]4(C)[C@H]3CC[C@]12C.Cl [TSBH, testosteronyl-4-dimethylaminobutyrate.HCl]
[9]
  Diffusion through human skin, times faster than the drug (TS) itself: ~60 times
